Laboratory results from patent publication US20220117921A1, “PHARMACEUTICAL COMBINATIONS FOR THE TREATMENT OF PAIN” (IMUNEKS FARMA ILAC SANAYI VE TICARET A.S., priority 2018, published 2022).

Tested on: female Albino Wistar rats
Assay: Hot plate test (heat induced pain model)
Format: in vivo, rat
Details: comparison between groups

## CC(C(=O)O)c1ccc(-c2ccccc2)c(F)c1 (stereo not shown) [FBP, Flurbiprofen]
  analgesic effect in the hot plate test (in words): lowest analgesic effect compared to all the other groups except the placebo group
